# Results: patent US20110105389A1 (priority 2009, published 2011)
# Biological target: T1, human ghrelin receptor (GRLN, growth hormone secretagogue receptor, hGHS-R1a) (Homo sapiens, UniProt Q92847)
# T1 construct: purchased PerkinElmer BioSignal #RBHGHSM, lot#1887; host or cells: HEK-293 cells, stably transfected (membranes)
# Assay: Competitive radioligand binding assay (ghrelin receptor), Method B1
# Conditions: not given
# Description: Multiscreen Harvest plates-GF/C (Millipore, #MAHFC1H60) • 4. […] Bottom seal (Millipore, #MATAH0P00) • 7. […] Binding Buffer: 25 mM Hepes (pH 7.4), 1 mM CaCl2, 5 mM MgCl2. 2.5 mM EDTA, 0.4% BSA
# Competition experiments were performed in a 300 μl filtration assay format. • 1. 220 μL of membranes diluted in binding buffer • 2. 40 μL of compound diluted in binding buffer • 3.
# Compounds were provided frozen on dry ice at a stock concentration of 10 mM diluted in 100% DMSO and stored at −80° C. until the day of testing. On the test day, compounds were allowed to thaw at rt overnight and then diluted in assay buffer according to the desired test concentrations. Under these conditions, the maximal final DMSO concentration in the assay was 0.1%.
# Plates were sealed with TopSeal-A, vortexed gently and incubated at rt for 30 min. The reaction was arrested by filtering samples through Multiscreen Harvest plates (pre-soaked in 0.5% polyethyleneimine) using a Tomtec Harvester, washed 9 times with 500 μL of cold 50 mM Tris-HCl (pH 7.4, 4° C.), and then plates were air-dried in a fumehood for 30 min. A bottom seal was applied to the plates prior to the addition of 25 μL of MicroScint-0 to each well. Plates were than sealed with TopSeal-A and counted for 30 sec per well on a TopCount Microplate Scintillation and Luminescence Counter (PerkinElmer) using a count delay of 60 sec. Results were expressed as counts per minute (cpm).
# Data were analyzed by GraphPad Prism (GraphPad Software, San Diego, Calif.) using a variable slope non-linear regression analysis. […] Dmax values were calculated using the following formula: […]
# T1 sequence (Q92847 whole entry): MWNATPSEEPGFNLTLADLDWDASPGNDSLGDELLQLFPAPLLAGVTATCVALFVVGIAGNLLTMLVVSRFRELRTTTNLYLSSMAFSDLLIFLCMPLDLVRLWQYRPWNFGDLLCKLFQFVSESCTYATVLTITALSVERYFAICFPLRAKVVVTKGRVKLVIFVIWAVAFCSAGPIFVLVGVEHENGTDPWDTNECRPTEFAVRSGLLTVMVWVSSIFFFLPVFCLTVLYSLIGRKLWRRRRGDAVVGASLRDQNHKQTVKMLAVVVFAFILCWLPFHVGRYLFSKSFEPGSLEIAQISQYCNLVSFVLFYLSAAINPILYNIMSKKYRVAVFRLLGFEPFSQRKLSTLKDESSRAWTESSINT
Structure (SMILES),IC50 [nM],Ki [nM]
CCC(C)[C@@H]1NCCOc2ccccc2CC[C@@H](C)NC(=O)[C@@H](Cc2ccccc2)NC(=O)[C@H](C(C)O)N(C)C1=O (stereo partly drawn) [Compound 1342],1 to 10,1 to 10
CC[C@H](C)[C@@H]1NC/C=C/c2ccccc2CCCNC(=O)[C@@H](Cc2ccccc2)NC(=O)[C@H]([C@H](C)O)N(C)C1=O [Compound 1346],> 500,100 to 500

# Same assay, conditions: Ghrelin receptor binding activity, Method B1
Structure (SMILES),Ki [nM],IC50 [nM]
CC(O)[C@H]1C(=O)N[C@H](Cc2ccccc2)C(=O)NC/C=C/c2ccccc2OCCN[C@@H](CO)C(=O)N1C (stereo partly drawn) [Compound 1305],> 500,–
CCC(C)[C@@H]1NCCOc2cccnc2CCCNC(=O)[C@@H](Cc2ccccc2)NC(=O)[C@H](C(C)O)N(C)C1=O (stereo partly drawn) [Compound 1311],> 500,–
CC(O)[C@H]1C(=O)N[C@H](Cc2ccccc2)C(=O)NC/C=C/c2ccccc2OCCN[C@@H](C2CCCC2)C(=O)N1C (stereo partly drawn) [Compound 1320],10 to 100,10 to 100
CCC(C)[C@H]1C(=O)N(C)[C@@H](C(C)O)C(=O)N[C@H](Cc2ccccc2)C(=O)NC/C=C/c2ccccc2OCCN1C (stereo partly drawn) [Compound 1323],10 to 100,–
CCC(C)[C@@H]1NCCOc2ccccc2/C=C/CNC(=O)[C@@H](Cc2ccc(N)cc2)NC(=O)[C@H](C(C)O)N(C)C1=O (stereo partly drawn) [Compound 1328],10 to 100,100 to 500
CCC(C)[C@@H]1NCCOc2ccccc2/C=C/CNC(=O)[C@@H](Cc2c[nH]cn2)NC(=O)[C@H](C(C)O)N(C)C1=O (stereo partly drawn) [Compound 1329],10 to 100,100 to 500
CCC(C)[C@@H]1NCCOc2ccccc2/C=C/CNC(=O)[C@@H](Cc2ccncc2)NC(=O)[C@H](C(C)O)N(C)C1=O (stereo partly drawn) [Compound 1330],10 to 100,100 to 500
CCC(C)[C@@H]1NCCOc2ccccc2/C=C/CNC(=O)[C@@H](Cc2ccco2)NC(=O)[C@H](C(C)O)N(C)C1=O (stereo partly drawn) [Compound 1331],10 to 100,10 to 100
CCC(C)[C@@H]1NCCOc2ccccc2C[C@@H](O)CNC(=O)[C@@H](Cc2ccccc2)NC(=O)[C@H](C(C)O)N(C)C1=O (stereo partly drawn) [Compound 1339],100 to 500,100 to 500
CCC(C)[C@@H]1N[C@H](C)COc2ccccc2CCCNC(=O)[C@@H](Cc2ccccc2)NC(=O)[C@H](C(C)O)N(C)C1=O (stereo partly drawn) [Compound 1347],100 to 500,100 to 500
CCC(C)[C@@H]1N[C@@H](C)COc2ccccc2CCCNC(=O)[C@@H](Cc2ccccc2)NC(=O)[C@H](C(C)O)N(C)C1=O (stereo partly drawn) [Compound 1348],100 to 500,> 500
CCC(C)[C@@H]1NCCOc2ccccc2CCC(C(F)(F)F)NC(=O)[C@@H](Cc2ccccc2)NC(=O)[C@H](C(C)O)N(C)C1=O (stereo partly drawn) [Compound 1349],10 to 100,–
CC(C)C1NCCOc2cc(F)ccc2C=CCNC(=O)C(C(C)c2ccccc2)NC(=O)C(C(C)O)N(C)C1=O (stereo not drawn) [Compound 1689],–,10 to 100
CC(C)C1CCc2ccccc2OCCNC(C(C)C)C(=O)N(C)C(C(C)O)C(=O)NC(Cc2ccccc2)C(=O)N1 (stereo not drawn) [Compound 1695],–,100 to 500
CCCC1CCc2ccccc2OCCNC(C(C)C)C(=O)N(C)C(C(C)O)C(=O)NC(Cc2c[nH]c3ccccc23)C(=O)N1 (stereo not drawn) [Compound 1697],–,100 to 500
CC(C)C1CCc2ccccc2OCCNC(C(C)C)C(=O)N(C)C(C(C)O)C(=O)NC(Cc2c[nH]c3ccccc23)C(=O)N1 (stereo not drawn) [Compound 1698],–,10 to 100
CC[C@@H]1C#Cc2ccc(Cl)cc2OCCN[C@@H](C(C)C)C(=O)N(C)[C@@H](C(C)O)C(=O)N[C@H](Cc2c[nH]c3ccccc23)C(=O)N1 (stereo partly drawn) [Compound 1709],–,10 to 100
CCC(C)[C@@H]1NCCO[C@H]2CCC[C@H]2CCCNC(=O)[C@@H](Cc2ccc(Cl)cc2)NC(=O)[C@H](C(C)O)N(C)C1=O (stereo partly drawn) [Compound 1714],–,1 to 10
CCC(C)[C@@H]1NCCO[C@H]2CCCC[C@H]2CCCNC(=O)[C@@H](Cc2ccc(Cl)cc2)NC(=O)[C@H](C(C)O)N(C)C1=O (stereo partly drawn) [Compound 1715],–,1 to 10
CC(O)[C@H]1C(=O)N[C@H](Cc2ccc(Cl)cc2)C(=O)NC/C=C/c2ccccc2OCCN[C@@H](C2CC2)C(=O)N1C (stereo partly drawn) [Compound 1728],–,10 to 100
CC(C)C[C@@H]1NCCOc2ccccc2/C=C/CNC(=O)[C@@H](Cc2ccc(Cl)cc2)NC(=O)[C@H](C(C)O)N(C)C1=O (stereo partly drawn) [Compound 1731],–,100 to 500
CC(O)[C@H]1C(=O)N[C@H](Cc2ccc(Cl)cc2)C(=O)NC/C=C/c2ccccc2OCCN[C@@H](CC(C)(C)C)C(=O)N1C (stereo partly drawn) [Compound 1733],–,100 to 500
CCC(C)C1NCCOc2ccccc2C=CCNC(=O)C(Cc2ccc(OC)cc2)NC(=O)C(C(C)O)N(C)C1=O (stereo not drawn) [Compound 1735],–,10 to 100
CCC(C)C1NCCOc2ccccc2C=CCNC(=O)C(Cc2ccc(C)cc2)NC(=O)C(C(C)O)N(C)C1=O (stereo not drawn) [Compound 1736],–,10 to 100
CC(O)[C@H]1C(=O)N[C@H](Cc2ccc(Cl)cc2)C(=O)N[C@H](C)CCc2ccccc2OCCN[C@@H](C2CCCCC2)C(=O)N1C (stereo partly drawn) [Compound 1744],–,> 500
CC1CCc2ccccc2OCCNC(C(C)(C)C)C(=O)N(C)C(C(C)O)C(=O)NC(Cc2ccc(Cl)cc2)C(=O)N1 (stereo not drawn) [Compound 1800],–,10 to 100
CC(=O)OC(C)C1C(=O)NC(Cc2ccccc2)C(=O)NCC=Cc2ccccc2OCCNC(C(C)C)C(=O)N1C (stereo not drawn) [Compound 1841],–,> 500
CCC(C)C1NCCOc2ccccc2C=CCNC(=O)C(Cc2ccc(Cl)cc2)NC(=O)C(C(C)OC(C)=O)N(C)C1=O (stereo not drawn) [Compound 1842],–,100 to 500

# Next, values leading:
Ki [nM],IC50 [nM],Structure (SMILES)
100 to 500,–,CCC(C)[C@@H]1NC[C@@H](C)Oc2ccccc2CCCNC(=O)[C@@H](Cc2ccccc2)NC(=O)[C@H](C(C)O)N(C)C1=O (stereo partly drawn) [Compound 1301]
10 to 100,10 to 100,CCC(C)[C@@H]1NC[C@@H](C)Oc2ccccc2/C=C/CNC(=O)[C@@H](Cc2ccccc2)NC(=O)[C@H](C(C)O)N(C)C1=O (stereo partly drawn) [Compound 1313]
100 to 500,100 to 500,CCC(C)[C@@H]1NC[C@H](C)Oc2ccccc2/C=C/CNC(=O)[C@@H](Cc2ccccc2)NC(=O)[C@H](C(C)O)N(C)C1=O (stereo partly drawn) [Compound 1314]
10 to 100,–,CCC(C)[C@@H]1NCCOc2cc(F)ccc2CC[C@H](C)NC(=O)[C@@H](Cc2ccccc2)NC(=O)[C@H](C(C)O)N(C)C1=O (stereo partly drawn) [Compound 1344]
10 to 100,100 to 500,CC(O)[C@H]1C(=O)N[C@H](Cc2ccccc2)C(=O)N[C@@H](C)CCc2ccccc2OCCN[C@@H](C2CC2)C(=O)N1C (stereo partly drawn) [Compound 1345]
–,> 500,CCCC1CCc2ccccc2OCCNC(C(C)C)C(=O)N(C)C(C(C)O)C(=O)NC(Cc2ccccc2)C(=O)N1 (stereo not drawn) [Compound 1694]
–,> 500,CCCC1CCc2ccccc2OCCNC(C(C)C)C(=O)N(C)C(C(C)O)C(=O)NC(Cc2cccc(F)c2)C(=O)N1 (stereo not drawn) [Compound 1696]
–,100 to 500,CCC1CCc2ccc(F)cc2OC(C)CNC(C2(C)CC2)C(=O)N(C)C(C(C)O)C(=O)NC(Cc2c[nH]c3ccccc23)C(=O)N1 (stereo not drawn) [Compound 1706]
–,100 to 500,CC(C)[C@@H]1NCCOc2ccccc2CC[C@H](C(C)C)NC(=O)[C@@H](Cc2cccc(F)c2)NC(=O)[C@H](C(C)O)N(C)C1=O (stereo partly drawn) [Compound 1708]
–,100 to 500,CC[C@@H]1CCc2ccc(F)cc2O[C@H](C)CN[C@@H](C2(C)CC2)C(=O)N(C)[C@@H](C(C)O)C(=O)N[C@H](Cc2cccc(F)c2)C(=O)N1 (stereo partly drawn) [Compound 1721]
–,10 to 100,CC[C@@H]1CCc2c(F)cccc2OCCN[C@@H](C(C)C)C(=O)N(C)[C@@H](C(C)O)C(=O)N[C@H](Cc2ccccc2)C(=O)N1 (stereo partly drawn) [Compound 1722]
–,10 to 100,CC[C@@H]1CCc2c(F)cccc2OCCN[C@@H](C(C)C)C(=O)N(C)[C@@H](C(C)O)C(=O)N[C@H](Cc2cccc(F)c2)C(=O)N1 (stereo partly drawn) [Compound 1724]
–,> 500,CC[C@@H]1CCc2ccc(OC)cc2OCCN[C@@H](C(C)C)C(=O)N(C)[C@@H](C(C)O)C(=O)N[C@H](Cc2c[nH]c3ccccc23)C(=O)N1 (stereo partly drawn) [Compound 1727]
–,> 500,CC(O)[C@H]1C(=O)N[C@H](Cc2ccc(Cl)cc2)C(=O)N[C@@H](C)CCc2ccccc2O[C@H](C)CN[C@@H](C2CC2)C(=O)N1C (stereo partly drawn) [Compound 1741]
–,10 to 100,CC[C@@H]1CCc2ccccc2O[C@H](C)CN[C@@H](C2(C)CC2)C(=O)N(C)[C@@H](C(C)O)C(=O)N[C@H](Cc2c[nH]c3ccccc23)C(=O)N1 (stereo partly drawn) [Compound 1756]
–,> 500,CC[C@@H]1CCc2ccc(F)cc2OCCN[C@@H](CC(C)(C)C)C(=O)N(C)[C@@H](C(C)O)C(=O)N[C@H](Cc2c[nH]c3ccccc23)C(=O)N1 (stereo partly drawn) [Compound 1764]
–,100 to 500,CCC1CCc2ccc(C(F)(F)F)cc2OCCNC(C(C)C)C(=O)N(C)C(C(C)O)C(=O)NC(Cc2ccccc2)C(=O)N1 (stereo not drawn) [Compound 1846]
–,> 500,CCC1CCc2ccc(F)cc2OCCNC(C(C)C)C(=O)N(C)C(C(C)OC(C)=O)C(=O)NC(Cc2c[nH]c3ccccc23)C(=O)N1 (stereo not drawn) [Compound 1851]
–,> 500,CCC1CCc2ccc(F)cc2OC(C)CNC(CC)C(=O)N(C)C(C(C)O)C(=O)NC(Cc2ccccc2)C(=O)N1 (stereo not drawn) [Compound 1852]
–,> 500,CC[C@@H]1CCc2c(cccc2C(N)=O)OCCN[C@@H](C(C)C)C(=O)N(C)[C@@H](C(C)O)C(=O)N[C@H](Cc2ccccc2)C(=O)N1 (stereo partly drawn) [Compound 1864]
